Laboratory results from patent US7683090B2, “Treating agent for irritable bowel syndrome” (Astellas Pharma Inc., priority 2004, dated 2010).
Structures can show the parent of a compound that is named as a salt. Where two headings read alike, the source gives them in different places.

Tests used:
[1] = tested on: patients suffering from non-constipated irritable bowel syndrome; details: 1 to 8 mg twice daily, cited from earlier work
[2] = tested on: male and female patients suffering from diarrhea-predominant irritable bowel syndrome (IBS); experiment: Clinical study with patients suffering from diarrhea-predominant irritable bowel syndrome (Test Example 1); assay type: in vivo, human; details: for final monthly responder rate in the global assessment of relief of overall IBS symptoms: placebo group 26.9%
Description: Clinical study was carried out under the following condition using male and female patients suffering from diarrhea-predominant irritable bowel syndrome (IBS) as subjects.
Subjects: Patients suffering from diarrhea-predominant IBS in accordance with the Rome II Diagnosis Criteria (D. A. Drossman, et al., pages 351 to 432, ROME II: The functional Gastrointestinal Disorders, Second Edition, Degnon Associates, McLean, 2000).
Test drugs and Administration Methods: Placebo and ramosetron hydrochloride were orally administered for 12 weeks at 0.005 mg or 0.01 mg once daily.
Test Periods: Observation period for one week and treating period for 12 weeks
After transition to the treating period, the starting date for administration of the test drug was defined as the first day. Every week, global assessment of relief of overall IBS symptoms was evaluated taking all symptoms by IBS of the subjects into consideration, comparing with their state in the observation period, and this evaluation was recorded in a patient diary. Incidentally, scores for the global assessment of relief of overall IBS symptoms were as follows.
The subjects where the score was 0 or 1 for two weeks or more during the four weeks were made monthly responders and the monthly responder rate per month was calculated separately for each group of 0.005 mg and 0.01 mg of placebo and ramosetron hydrochloride.
After transition to the treating period, the starting date for administration of the test drug was defined as the first day. Every week, global assessment of relief of abdominal discomfort/pain by the test drug was evaluated with the state in the observation period and was recorded in a patient diary. Incidentally, scores for the global assessment of relief of abdominal discomfort/pain were as follows.
After transition to the treating period, the starting date for administration of the test drug was defined as the first day. Every week, global assessment of improvement of abnormal bowel habits was evaluated comparing with the state in the observation period, and was recorded in a patient diary. Incidentally, scores for the global assessment of improvement of abnormal bowel habits were as follows.
With regard to (1) to (3) for the subsidiary evaluation items, they were also subjected to calculations of monthly responder rate the same as those for the main evaluation items.

[3] = tested on: patients suffering from irritable bowel syndrome; experiment: Former clinical studies, ramosetron hydrochloride administered twice daily to patients suffering from irritable bowel syndrome; assay type: in vivo, human
From the text: The present inventors have carried out intensive investigations for the purpose of creation of novel treating agents for irritable bowel syndrome including non-constipated irritable bowel syndrome such as diarrhea-predominant irritable bowel syndrome and alternating constipation/diarrhea irritable bowel syndrome for which no sufficiently effective treating agent has been available.

[4] = 0.005 mg and 0.01 mg once daily, 12 weeks

SMILES | relief of pain and discomfort, stool consistency, bowel movement frequency and proportion of days with urgency, compared with placebo ([1]; female patients) | relief of pain and discomfort, stool consistency, bowel movement frequency and proportion of days with urgency, compared with placebo ([1]; male patients) | difference in the responder rates between placebo group and ramosetron group: male versus female patients ([2]; 0.005 mg and 0.01 mg once daily) | final monthly responder rate in the global assessment of relief of abdominal discomfort/pain, better than the placebo group [2, 4] | final monthly responder rate in the global assessment of relief of abnormal bowel habits, better than the placebo group [2, 4] | therapeutic effect in patients suffering from diarrhea-predominant irritable bowel syndrome (conclusion) ([2]; 0.005 mg and 0.01 mg, administration once daily) | final monthly responder rate in the global assessment of relief of overall IBS symptoms ([2]; 0.005 mg orally once daily, 12 weeks, p 0.0273 to placebo) [%] | final monthly responder rate in the global assessment of relief of overall IBS symptoms ([2]; 0.01 mg orally once daily, 12 weeks, p 0.0264 to placebo) [%] | monthly responder rate (overall IBS symptoms) in excess of the responder rate in the placebo group ([2]; groups of 0.005 mg and 0.01 mg once daily, 12 weeks) | therapeutic effect as compared with placebo [3]
Cc1[nH]cnc1CN1CCc2c(c3ccccc3n2C)C1=O [alosetron] | significant improvement was noted in female patients | no significant improvement was noted as compared with placebo except stool consistency |  |  |  |  |  |  |  | 
Cn1cc(C(=O)[C@@H]2CCc3[nH]cnc3C2)c2ccccc21 [ramosetron hydrochloride, (−)-(R)-5-[(1-methyl-1H-indol-3-yl)carbonyl]-4,5,6,7-tetrahydro-1H-benzimidazole] |  |  | no difference was noted between male and female patients | more than 10% | more than 10% | effective for both males and females | 42.6 | 43.0 | more than 15% | significant therapeutic effect as compared with placebo was unable to be confirmed
